Common to all, as to assay type: biochemical
Assay [1] concerns the target T1, MMP-2 (Homo sapiens, UniProt P08253).
T1 sequence (P08253 110-660): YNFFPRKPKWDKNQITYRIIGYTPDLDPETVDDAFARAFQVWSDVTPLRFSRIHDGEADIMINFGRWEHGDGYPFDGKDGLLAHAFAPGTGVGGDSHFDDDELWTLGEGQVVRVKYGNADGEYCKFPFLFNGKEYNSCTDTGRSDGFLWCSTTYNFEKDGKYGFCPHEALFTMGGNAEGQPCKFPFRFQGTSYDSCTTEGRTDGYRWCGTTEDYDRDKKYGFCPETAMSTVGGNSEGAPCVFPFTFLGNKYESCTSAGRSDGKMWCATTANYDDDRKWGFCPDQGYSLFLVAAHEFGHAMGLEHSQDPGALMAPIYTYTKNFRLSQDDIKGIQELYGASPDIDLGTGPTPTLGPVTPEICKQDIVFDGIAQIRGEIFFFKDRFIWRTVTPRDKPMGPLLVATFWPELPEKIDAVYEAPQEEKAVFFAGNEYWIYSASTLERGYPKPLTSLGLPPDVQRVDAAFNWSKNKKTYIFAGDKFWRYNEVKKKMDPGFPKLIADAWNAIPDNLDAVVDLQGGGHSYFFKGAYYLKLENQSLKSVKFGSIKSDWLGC
Nature of the assay: Secondary P218 Quenched fluorescence Assay for MMP-2 Inhibition. As to conditions: for IC50: 0.2 nM enzyme, x (n) = average of n determinations, read-out: MMP-2 Fluorogenic IC50.

In assay [2] the target is T2, MMP-3 (Homo sapiens, UniProt P08254).
T2 construct: Truncated Prostromelysin-257 was expressed in a soluble form in E.coli; made in house; host or cells: E. coli
T2 sequence (P08254 100-274 limits assumed): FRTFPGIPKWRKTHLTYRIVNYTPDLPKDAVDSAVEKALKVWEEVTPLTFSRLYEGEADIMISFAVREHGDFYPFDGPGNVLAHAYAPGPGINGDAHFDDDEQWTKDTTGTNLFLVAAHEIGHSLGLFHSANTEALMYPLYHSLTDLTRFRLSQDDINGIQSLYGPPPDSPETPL
Put plainly: Secondary P218 Quenched fluorescence Assay for MMP-3 Inhibition. As to conditions: for IC50: P218 substrate, pH 6.5, 25° C., x (n) = average of n determinations, read-out: MMP-3 Fluorogenic IC50. As for the experimental part: Truncated Prostromelysin-257 was expressed in a soluble form in E.coli as described by Marcy et al., Biochemistry, 30, 6476-6483, 1991. Soluble truncated prostromelysin was purified by a modification of the monoclonal antibody affinity chromatography method described by Housley et al., J. Biol. Chem., 268, 4481-87, 1993.
The assay is run continuously in a 3.0 ml cuvette using a Perkin-Elmer LS 50 B Spectrofluorimeter at 25° C. in a final volume of 2.0 mls. P218 substrate (10 mM) in 100% DMSO is diluted to a final concentration of 2.0 micromolar (μM) into assay buffer: 50 mM MES, pH 6.5 containing 150 mM NaCl, 10 mM CaCl2, 0.005% Brij-35, and 1%(v/v) DMSO. Test compounds(10 mM) in DMSO are diluted in assay buffer at an initial concentration of 10 to 100 micromolar. […] The reaction is initiated by the addition of recombinant stromelysin (MMP-3) at a final concentration of 1.0 nM. Upon peptide cleavage, the fluorescent MCA group was detected using an excitation wavelength of 328 nanometers and an emission wavelength of 393 nanometers.

Assay [3] has as its system MMP. Put plainly: MMP inhibitory activity, comparison in words.
Assay [4] deals with T3, MMP-9 (Homo sapiens, UniProt P14780).
T3 construct: from tissue; host or cells: human polymorphonuclear leukocytes (PMN) from whole blood (New York Blood Center), PMA-stimulated supernatant
T3 sequence (P14780 107-707 limits assumed): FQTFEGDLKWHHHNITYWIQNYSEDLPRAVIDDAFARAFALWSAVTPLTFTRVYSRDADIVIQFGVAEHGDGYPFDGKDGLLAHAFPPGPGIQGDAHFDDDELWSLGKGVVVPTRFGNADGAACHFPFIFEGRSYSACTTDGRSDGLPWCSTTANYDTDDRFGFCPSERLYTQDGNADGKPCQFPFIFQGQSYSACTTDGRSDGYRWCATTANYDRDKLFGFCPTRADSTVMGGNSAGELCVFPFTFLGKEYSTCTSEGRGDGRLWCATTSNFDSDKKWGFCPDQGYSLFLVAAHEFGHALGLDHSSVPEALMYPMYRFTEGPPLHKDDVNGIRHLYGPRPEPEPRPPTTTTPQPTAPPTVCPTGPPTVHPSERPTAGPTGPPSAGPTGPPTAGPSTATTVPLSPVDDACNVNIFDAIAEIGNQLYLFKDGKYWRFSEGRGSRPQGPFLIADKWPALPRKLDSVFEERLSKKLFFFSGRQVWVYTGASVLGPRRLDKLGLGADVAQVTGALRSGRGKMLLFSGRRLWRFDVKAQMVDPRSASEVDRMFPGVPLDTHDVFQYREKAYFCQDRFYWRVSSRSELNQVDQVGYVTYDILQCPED
Put plainly: Thiopeptilide MMP-9 Inhibition Assay. The note with it: for IC50: pH 6.5, x (n) = average of n determinations, read-out: MMP-9: Thiopep. IC50; for inhibition at 5 µM: read-out: MMP-9: Thiopep. % inhibition.

The target in assay [5] is T2, MMP-3. Put plainly: Primary Thiopeptilide MMP-3 Inhibition Assay. The note with it: for IC50: pH 6.5, 13 nM stromelysin, x (n) = average of n determinations, read-out: MMP-3 Thiopep. IC50; for inhibition at 5 µM: read-out: MMP-3 Thiopep. % inhibition.
Protocol: Enzyme: recombinant stromelysin expressed in E.coli and purified as described above. […] The protocols for the assay of compounds as stromelysin inhibitors was the same as that used for MMP-9 except that the assay buffer was 50 mM MES, pH 6.5 containing 150 mM NaCl, 10 mM CaCl2, 0.005% Brij, and 1% DMSO.
Assay [6] deals with T2, MMP-3. Nature of the assay: Automated MMP Profiling Assay, MMP-3 fluorogenic. The note with it: 96-well automated, P218. From the text: This assay with each invention compound was run with the three enzymes MMP-3, MMP-9 and MMP-2 in parallel as adapted for a 96-well microtitre plate using a Hamilton A® workstation.
Assay [7] has as its target T1, MMP-2. Nature of the assay: Automated MMP Profiling Assay, MMP-2 fluorogenic. The note with it: 96-well automated, P218; read-out: MMP-2 Fluorogenic IC50 (profiling).
In assay [8] the target is T3, MMP-9. Put plainly: Automated MMP Profiling Assay, MMP-9 fluorogenic. As to conditions: 96-well automated, P218.

Non-standard residues stand in square brackets, D forms with d. Residues, ends and D or L forms follow the SMILES beside them. *: point of attachment. Dnp = O=[N+]([O-])c1ccc(*)c([N+](=O)[O-])c1; Mca = COc1ccc2c(CC(=O)*)cc(=O)oc2c1; Dap = NC[C@H](N)C(=O)O

As usually defined, the inhibition is the drop in the measured response relative to a control, in per cent. Broadly, the IC50 is the concentration needed to halve the response being measured.

`COc1ccc2c(CC(=O)N3CCC[C@H]3C(=O)N[C@@H](CCCCN)C(=O)N3CCC[C@H]3C(=O)N[C@@H](CC(C)C)C(=O)N[C@@H](C)C(=O)N[C@@H](CC(C)C)C(=O)N[C@@H](CNc3ccc([N+](=O)[O-])cc3[N+](=O)[O-])C(=O)N[C@@H](C)C(=O)N[C@@H](CCCNC(=N)N)C(N)=O)cc(=O)oc2c1` [Example P218] (Mca-PKPLAL[Dap](Dnp)AR-NH2): the “turnover number of MMP-2” value in assay [1] (P218 substrate) is 400,000.

`O=C(O)CCc1ccc(-c2ccc(CCC(CCCc3ccccc3)C(=O)O)cc2)cc1` (stereo not drawn) [Example 45, [1,1'-Biphenyl]-4-butanoic acid, 4'-(2-carboxyethyl)-α-(3-phenylpropyl)-]: the inhibition at 5 µM in assay [2] (at 5 μM, read-out: MMP-3 Fluorogenic % inhibition) worked out at 43%; in assay [1] (at 5 μM, read-out: MMP-2 Fluorogenic % inhibition), 56%.

On to `O=C(O)[C@@H]1CC[C@H]1C(=O)c1ccc(-c2ccc(Cl)cc2)cc1` (relative stereo) [Example 291, Cyclobutanecarboxylic acid, 2-[(4'-chloro[1,1'-biphenyl]-4-yl)carbonyl]-, trans-], for which, in assay [3], the “MMP inhibitory activity (in words)” value is given as “much more active”. In addition, the results for the IC50 in assay [4] and in assay [5] were 2700 nM and 437 nM, respectively.

As to `CCCCCOc1ccc(-c2ccc(C(=O)CC(CCCc3ccccc3)C(=O)O)cc2)cc1` (centres unmarked) [Example 85, 4-[4-(4-pentyloxyphenyl)phenyl]-4-oxo-2-(3-phenylpropyl)butanoic acid], the IC50 in assay [6] came to 80 nM; in assay [7] it was 32 nM; in assay [8], 767 nM; in assay [5] it was 37 nM. In addition, in assay [4], the inhibition at 5 µM amounted to 44%.

For `CCOC(=O)/C=C/c1ccc(-c2ccc(C(=O)CC(CCCc3ccccc3)C(=O)O)cc2)cc1` (stereo not drawn) [Example 42, [1,1'-Biphenyl]-4-butanoic acid, 4'-(3-ethoxy-3-oxo-1-propenyl)-γ-oxo-α-(3-phenylproyl)-, (E)-], the IC50 in assay [2] is 48 nM; in assay [1] (P218 substrate) it was 21 nM.

Take `CCOC(=O)CCc1ccc(-c2ccc(CCC(CCCc3ccccc3)C(=O)O)cc2)cc1` (stereo not drawn) [Example 44, [1,1'-Biphenyl]-4-butanoic acid, 4'-(3-ethoxy-3-oxopropyl)-α-(3-phenylpropyl)-]: the IC50 came out at 1970 nM in assay [2] and 1150 nM in assay [1] (P218 substrate).

As for `CC(C)CC(CC(=O)O)C(=O)c1ccc(-c2ccc(Cl)cc2)cc1` (single isomer, unassigned) [Example 4, 5-methyl-3-[oxo-(4'-chloro-4-biphenyl)methyl]hexanoic acid], the results for the IC50 in assay [2], in assay [4] and in assay [5] were 480 nM, 2700 nM and 379 nM, respectively.

Consider `O=C(CC(Cc1ccccc1)C(=O)O)c1ccc(-c2ccc(Cl)cc2)cc1` (stereo not drawn) [Example 131, [1,1'-Biphenyl]-4-butanoic acid, 4'-chloro-γ-oxo-α-(phenylmethyl)-], for which the figures for the IC50 in assay [2] and in assay [5] were 900 nM and 310 nM, respectively.

Regarding `O=C(C[C@@H](CCCc1ccccc1)C(=O)O)c1ccc(-c2ccc(Cl)cc2)cc1` [Example 115, 4-[4-(4-chlorophenyl)phenyl]-4-oxo-2R-(3-phenylpropyl)butanoic acid], the IC50 in assay [6] is more than 1250 nM; in assay [7], 1750 nM; in assay [8], more than 1250 nM. In addition, the figures for the inhibition at 5 µM in assay [4] and in assay [5] were 31% and 39%, respectively.

With `O=C(CC(CCCc1ccccc1)C(=O)O)c1ccc(-c2ccc(Cl)cc2)cc1` (centres unmarked) [Example 114, 4-[4-(4-chlorophenyl)phenyl]-4-oxo-2-(3-phenylpropyl)butanoic acid], the IC50 is 120 nM in assay [2]; 246 nM in assay [6]; 68 nM in assay [7]; 25 nM in assay [1] (P218 substrate); 439 nM in assay [8]; 285 nM in assay [4]. Also, in assay [5], the IC50 was 244 nM.

With `COC(=O)c1ccccc1SCC(CC(=O)c1ccc(-c2ccc(Cl)cc2)cc1)C(=O)O` (stereo not drawn) [Example 244, [1,1'-Biphenyl]-4-butanoic acid, 4'-chloro-α-[[[2-(methoxycarbonyl)phenyl]thio]methyl]-γ-oxo-], the IC50 in assay [2] stood at 27 nM; in assay [1] (P218 substrate), 7 nM; in assay [4], 600 nM; in assay [5], 79 nM.

Take `CC(C)CC(CC(=O)c1ccc(-c2ccccc2)cc1)C(=O)O` (stereo not drawn) [Example 13, [1,1'-Biphenyl]-4-butanoic acid, α-(2-methylpropyl)-γ-oxo-]: in assay [3], the “MMP inhibitory activity (in words)” value was “low potency”. In addition, the inhibition at 5 µM in assay [4] was 3%; in assay [5], 27%.

On to `CC(C)(C)C(=O)SCC(CC(=O)c1ccc(-c2ccc(Cl)cc2)cc1)C(=O)O` (stereo not drawn) [Example 193, [1,1'-Biphenyl]-4-butanoic acid, 4'-chloro-α-[[(2,2-dimethyl-1-oxopropyl)thio]methyl]-γ-oxo-], for which the IC50 was found to be 150 nM in assay [2], 40 nM in assay [1] (P218 substrate), 2450 nM in assay [4] and 153 nM in assay [5].

Consider `CCCCCC(CC(=O)c1ccc(-c2ccc(Cl)cc2)cc1)C(=O)O` (stereo not drawn) [Example 26, [1,1'-Biphenyl]-4-butanoic acid, 4'-chloro-γ-oxo-α-pentyl-], for which the figures for the IC50 in assay [2], in assay [4] and in assay [5] were 240 nM, 4300 nM and 620 nM, respectively.

Turning to `CC(C)CC(CC(=O)c1ccc(-c2ccc(Br)cc2)cc1)C(=O)O` (stereo not drawn) [Example 14, [1,1'-Biphenyl]-4-butanoic acid, 4'-bromo-α-(2-methylpropyl)-γ-oxo-], the IC50 in assay [2] came out at 570 nM; in assay [4], 1200 nM; in assay [5], 440 nM.

In the case of `O=C(O)[C@@H]1[C@@H](C(=O)c2ccc(-c3ccc(Cl)cc3)cc2)CC[C@H]1Sc1ccccc1` (relative stereo) [Example 294, trans-5-[4-(4-chlorophenyl)phenylcarbonyl]-trans-^2-phenylthiocyclopentanecarboxylic acid], the IC50 came out at 14 nM in assay [2]; 58 nM in assay [6]; 11 nM in assay [7]; 4 nM in assay [1] (P218 substrate); 176 nM in assay [8]; 56 nM in assay [4]. The concentration for half-maximal inhibition (IC50) in assay [5] was determined as 47 nM.

Turning to `CC(C)CC(CC(=O)c1ccc(-c2ccc(Cl)cc2)cc1)C(=O)O` (stereo not drawn) [Example 1, [1,1'-Biphenyl]-4-butanoic acid, 4'-chloro-α-(2-methylpropyl)-γ-oxo-], the IC50 in assay [2] worked out at 805 nM; in assay [4] it was 1000 nM; in assay [5], 486 nM.

On to `CC(C)(C)C(=O)SCC(CC(=O)c1ccc(-c2ccc(Cl)cc2)cc1)C(=O)O` (single isomer, unassigned) [Example 194, [1,1'-Biphenyl]-4-butanoic acid, 4'-chloro-α-[[(2,2-dimethyl-1-oxopropyl)thio]methyl]-γ-oxo-], for which the values for the half-maximal inhibitory concentration (IC50) in assay [2], in assay [4] and in assay [5] were 62 nM, 750 nM and 115 nM, respectively.

Regarding `CC(C)CC(CC(=O)c1ccc(-c2ccc(I)cc2)cc1)C(=O)O` (stereo not drawn) [Example 41, [1,1'-Biphenyl]-4-butanoic acid, 4'-iodo-α-(2-methylpropyl)-γ-oxo-], the IC50 is 260 nM in assay [2], 500 nM in assay [4] and 118 nM in assay [5].

For the origin of these results see patent US5789434A, “Derivatives of substituted 4-biarylbutyric acid as matrix metalloprotease inhibitors” (priority 1995, dated 1998).
